Biological target: human GPR40 (Homo sapiens (Human), UniProt O14842)
Test: GPR40 Calcium Flux Assay
Assay type: cell-based
Details: transfected HEK293 cells stably expressing human GPR40, mean data, read-out: hGPR40 Ca^2+ Assay EC50
Method: Compounds were tested in a calcium flux assay using transfected HEK293 cells stably expressing either human GPR40 or rat GPR40. Human GPR40 expressing cells were cultured in DMEM-High Glucose media supplemented with 10% fetal bovine serum, 1×L-Glutamine, 1× Penicillin/Streptomycin and 500 μg/mL G418. Rat GPR40 expressing cells were cultured in DMEM-High Glucose media supplemented with 10% fetal bovine serum and 1 μg/mL puromycin. Cells were plated into poly-D-lysine coated 384-well plates and cultured overnight in a 37° C. humidified tissue culture incubator under 5% CO2/90% O2 atmosphere. On the day of the experiment, the culture media was replaced with assay buffer (HBSS, 20 mM HEPES, 0.1% BSA) and the cells incubated at 37° C. for 1 h. Calcium-sensitive fluorescent dye (Fluo 8 No-Wash Calcium Dye, ABD Bioquest) was then added and the cells incubated for another 30 min at 37° C. followed by 15 min at room temperature while protected from the light. The cell plate and a plate of diluted compounds of Formula (I) were loaded into a fluorescent plate reader that added compounds onto the cells while measuring the fluorescence intensity of each well. The plate reader recorded fluorescence intensity at 1 second intervals for 8 min and provided the data for analysis in an Excel format. EC50 values were calculated using Prism (GraphPad) software.

Chain of human GPR40 (O14842 whole entry): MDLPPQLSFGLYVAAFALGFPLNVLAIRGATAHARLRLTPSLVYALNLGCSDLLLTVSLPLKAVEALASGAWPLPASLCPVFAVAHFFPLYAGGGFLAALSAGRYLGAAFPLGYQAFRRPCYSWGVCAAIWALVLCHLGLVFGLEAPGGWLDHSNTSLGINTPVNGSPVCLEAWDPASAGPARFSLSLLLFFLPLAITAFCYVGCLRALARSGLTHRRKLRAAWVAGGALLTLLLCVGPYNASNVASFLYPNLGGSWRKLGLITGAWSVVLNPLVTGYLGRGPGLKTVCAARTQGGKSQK

## Cc1ccccc1-c1csc2ccc(COc3ccc([C@]4(CC(=O)O)C[C@@H](O)C4)cc3)cc12 [Cpd 31, 2-((1r,3r)-3-Hydroxy-1-(4-((3-(2-methylphenyl)benzo[b]thiophen-5-yl)methoxy)phenyl)cyclobutyl)acetic acid]
  EC50: 14 nM
